Reference: paper PMC11456916, “A screen for cell envelope stress uncovers an inhibitor of prolipoprotein diacylglyceryl transferase, Lgt, in Escherichiacoli” (iScience, 2024)
Where two headings read alike, the source gives them in different places.

Legend:
[1] = system: S. Typhimurium SL1344; assay: MIC assay with or without SPR741, S. Typhimurium; type: cell-based; conditions: Salmonella enterica
Method: (§1) We next sought to determine whether we could achieve growth inhibition of wild-type E. coli using MAC-0452936 and an antibiotic adjuvant. […] To that end, we determined the MIC of MAC-0452936 against wild-type E. coli in the presence and absence of a sub-MIC concentration of SPR741 (Figure S8B). […] We leveraged this combination to characterize the spectrum of activity of MAC-0452936 against a panel of Gram-negative pathogens (Table 2). In the presence of 8 μg/mL SPR741, we observed MAC-0452936 activity against the clinical E. coli isolates C0244 and CFT073 at 2 μg/mL as well as against Salmonella Typhimurium SL1344 at 4 μg/mL.
(§2) For MIC assays, cultures of bacteria were grown in LB broth. Overnight cultures were diluted (1:100) into fresh LB media and grown to the mid-log phase of growth (OD600 ∼0.5). Subcultures were then normalized to an OD600 of 0.1, and diluted (1:5000) into assay media. Assay plates were then incubated for 18 h at 37°C, then OD600 was measured using a Biotek Neo plate reader.

[2] = system: E. coli CO244; assay: MIC assay with or without SPR741, E. coli CO244; type: cell-based; conditions: Escherichia coli
Method: as §1, §2

[3] = system: E. coli ΔtolC-pore; assay: Selection of spontaneous resistance mutants; type: cell-based; conditions: E. coli ΔtolC-pore plated on LB agar with 4×, 8× and 16× MIC
Excerpt: The point mutations in Lgt were the only mutations identified in all five isolates (the Illumina sequencing and BreSeq alignment files have been made available in an online data repository, https://zenodo.org/records/11068394). Lgt catalyzes the essential transfer of diacylglycerol from phosphatidyl-glycerol (PG) to the terminal cysteine of pre-prolipoproteins[48] and was also identified as a possible target in our CRISPRi screen for rcsA bioreporter induction (Figures 2E and S3). When mapped to a recently solved crystal structure of E. coli Lgt,[49] the three distinct variants identified in our resistant clones (A37T, V109A, and G138A) were found on three proximal α-helices in the substrate binding pocket of the enzyme (Figure 4B).
A culture of E. coli ΔtolC-pore was grown overnight in LB broth at 37°C with shaking, then, ∼6 × 10^8 CFU in 100 μL of LB broth was plated on LB agar plates containing 4, 8, or 16 μg/mL of MAC-0452936. Plates were then incubated at 37°C, and examined every 24 h for the emergence of resistant colonies. Colonies began to emerge after 48 h of incubation and were purified by restreaking on LB agar and LB agar containing the same concentrations of MAC-0452936 from which the colonies originally appeared. […] DNA samples were sequenced on the Illumina MiSeq platform (SeqCenter LLC) and reads were aligned to the E. coli BW25113 reference genome using Breseq[77] […]

[4] = system: K. pneumoniae MKP103; assay: MIC assay with or without SPR741, K. pneumoniae; type: cell-based, Klebsiella pneumoniae; conditions: for MIC: Klebsiella pneumoniae
Method: as §1, §2

[5] = system: E. coli ΔtolC-pore harboring the lgt expression plasmid pCHAP9231; assay: Ectopic lgt expression MIC (high-copy suppression, pCHAP9231); type: cell-based; conditions: pCHAP9231, 0.4% arabinose, LB
[6] = system: P. aeruginosa PA01; assay: MIC assay with or without SPR741, P. aeruginosa; type: cell-based, Pseudomonas aeruginosa; conditions: for MIC: Pseudomonas aeruginosa
Method: as §1, §2

[7] = system: E. coli ΔtolC-pore harboring pPromrcsA-GFP-mobile; assay: Secondary screen of bioactive small molecules for rcsA bioreporter induction (agar diffusion); type: cell-based; conditions: 100 nL of 10 mM stock spotted on MOPS minimal agar, visual analysis
Excerpt: To identify small molecules that act on the Gram-negative cell envelope, a set of 797 bioactive compounds that were previously identified to be antibacterial against efflux-deficient hyper-permeable E. coli (E. coli ΔtolC-pore) was screened to determine those that can induce the rcsA bioreporter on MOPS minimal medium. E. coli ΔtolC-pore is deficient in TolC-mediated drug efflux and expresses an outer-membrane pore encoded by fhuA,[46]^,[47] thereby allowing the capture of additional antibacterial chemical scaffolds that would normally be subject to efflux or are unable to traverse the E. coli outer membrane. As the compounds in the bioactive compound collection were all antibacterial at varying inhibitory concentrations, we conducted this secondary screen using a modified solid agar diffusion assay. This enabled testing of these antibacterial small molecules at a range of concentrations, which is often required to assess bioreporter induction. To that end, 100 nL aliquots of compounds from screening library plates were deposited onto discrete positions on MOPS agar impregnated with E. coli ΔtolC-pore harboring the reporter (Figure 3A). Compounds that induced reporter expression were determined through visual analysis of the screening plates following overnight growth by looking for signature green “halos” proximal to the zones of inhibition (Figure S4). […]

[8] = system: E. coli ΔtolC; assay: MIC assay, E. coli ΔtolC; type: cell-based; conditions: growth inhibition, in words
Method: as §2

Question: With `COc1ccc(C(=O)O/N=C(\c2cccs2)C(C)(C)C)cc1` [MAC-0452936, (Z)-2-Pivaloylthiophene O-(4-methoxybenzoyl) oxime] as the compound, how does the MIC ([1]; read-out: MIC, S. Typhimurium SL1344 + 0 μg/mL SPR741) read?
Answer: > 64 µg/mL

Question: And the MIC ([1]; read-out: MIC, S. Typhimurium SL1344 + 8 μg/mL SPR741)?
Answer: 4 µg/mL

Question: What about the MIC ([2]; CO244, read-out: MIC, E. coli CO244 + 8 μg/mL SPR741) of the same compound?
Answer: 2 µg/mL

Question: And the MIC ([2]; CO244, read-out: MIC, E. coli CO244 + 0 μg/mL SPR741)?
Answer: > 64 µg/mL

Question: And the frequency of resistance [3]?
Answer: 2 x 10^−8

Question: What about the resistant isolates identified [3] of the same compound?
Answer: five independent resistant isolates were generated

Question: What about the “MIC, K. pneumoniae MKP103 + 8 μg/mL SPR741” value ([4]; 8 μg/mL SPR741) of the same compound?
Answer: did not observe MAC-0452936 activity

Question: What about the MIC ([4]; MKP103, read-out: MIC, K. pneumoniae MKP103 + 0 μg/mL SPR741) of the same compound?
Answer: > 64 µg/mL

Question: What about the MIC ([4]; MKP103, read-out: MIC, K. pneumoniae MKP103 + 8 μg/mL SPR741) of the same compound?
Answer: > 64 µg/mL

Question: What about the “suppression of activity by induction of lgt expression with arabinose” value [5] of the same compound?
Answer: about 8 fold

Question: What about the “MIC, P. aeruginosa PA01 + 8 μg/mL SPR741” value ([6]; 8 μg/mL SPR741) of the same compound?
Answer: did not observe MAC-0452936 activity

Question: And the MIC ([6]; PA01, read-out: MIC, P. aeruginosa PA01 + 8 μg/mL SPR741)?
Answer: > 64 µg/mL

Question: What about the MIC ([6]; PA01, read-out: MIC, P. aeruginosa PA01 + 0 μg/mL SPR741) of the same compound?
Answer: > 64 µg/mL

Question: What about the “rcsA bioreporter (GFP) induction in secondary screen” value [7] of the same compound?
Answer: induced pPromrcsA-GFP

Question: What about the “activity against E. coli ΔtolC” value [8] of the same compound?
Answer: active
